# Data from patent US20160256449A1, “H3 RECEPTOR ANTAGONIST FOR USE IN THE TREATMENT OF ALZHEIMER'S DISEASE” (SANOFI, priority 2013, published 2016).
# Tests used:
# [1] = system: patients with mild to moderate Alzheimer's disease; assay: clinical study, treatment emergent adverse events (TEAE); assay type: in vivo, human; conditions: for Patients with an TEAE / Patients with any treatment emergent serious adverse event / TEAE: Anxiety / TEAE: Cardiac disorders / TEAE: Depressive disorders / TEAE: Dermatitis / TEAE: Diarrhea / TEAE: Dyspepsia / TEAE: Gastrointestinal disorders / TEAE: Hiatus hernia / TEAE: Infections and infestations / TEAE: Muscle spasm / TEAE: Musculoskeletal and connective tissue disorders / TEAE: Other (Falls) / TEAE: Psychiatric disorders / TEAE: Rashes / TEAE: Skin and subcutaneous tissue disorders / TEAE: Sleep disorders and Disturbance / TEAE: Vascular disorders: with donepezil
# Protocol: (§1) A randomized, double-blind, parallel-group, placebo-controlled clinical trial was performed to study the effect on cognitive performance, safety, and tolerability of 2-(cyclohexylmethyl)-N-{2-[(2S)-1-methylpyrrolidin-2-yl]ethyl}-1,2,3,4-tetrahydroisoquinoline-7-sulfonamide difumarate monohydrate as adjunct treatment to donepezil.
# (§2) More specifically, patients with mild to moderate Alzheimer's disease on stable donepezil therapy were randomized to receive doses of 0.5 mg, 2 mg, or 5 mg/day of 2-(cyclohexylmethyl)-N-{2-[(2S)-1-methylpyrrolidin-2-yl]ethyl}-1,2,3,4-tetrahydroisoquinoline-7-sulfonamide difumarate monohydrate or placebo for 24 weeks, with a 10 week follow-up period.
# (§3) Patients were randomized to receive 0.5 mg, 2 mg, or 5 mg of 2-(cyclohexylmethyl)-N-{2-[(2S)-1-methylpyrrolidin-2-yl]ethyl}-1,2,3,4-tetrahydroisoquinoline-7-sulfonamide difumarate monohydrate (measured in base form), or matching placebo once a day, with donepezil (5 mg or 10 mg in the form the patient took prior to enrollment), for 24 weeks, with or without food.
# [2] = system: patients with mild to moderate Alzheimer's disease; assay: clinical study, responder analysis on combined criterion (ADAS-Cog, ADCS-ADL, CGIC); assay type: in vivo, human; conditions: week 24
# From the text: FIG. 7 illustrates the rate of “responders” at week 24 for the four dose group according to a combined criterion on the ADAS-Cog (2 points improvement vs baseline), ADCS-ADL (no worsening) and CGIC (no worsening) during the clinical study described in Example 2, in the mITT population.
# “CGIC” as used herein, refers to the Clinical Global impression of Change assessed (at week 12 and week 24 during the clinical study described in Example 2) by the investigator according to 3 modalities: “Improvement” (includes marked, moderate and minimal improvement), “No change” and “Worsening” (includes minimal, moderate and marked worsening).
# FIG. 7 illustrates the responder analysis at week 24 based on a combined criterion defined as followed: […]
# change from baseline to Week 24 lower than or equal to −2 points in the ADAS-Cog total score, and
# change from baseline to Week 24 greater than or equal to 0 point in the ADCS-ADL global score, and
# no worsening according to the CGIC assessment at Week 24.
# [3] = system: patients with mild to moderate Alzheimer's disease; assay: clinical study, CDR-S computerized assessment; assay type: in vivo, human
# Protocol: “CDR-S” as used herein, refers to the Cognitive Drug Research computerized assessment system which tests various aspects of human cognitive function, memory, and attention.
# as §1, §2, §3
# Change from baseline to Week 24 in the five factors from the Cognitive Drug Research computerized assessment system (CDR-S): power of attention, continuity of attention, quality of working memory, cognitive reaction time, and speed of memory;
# Change from baseline to Week 8 and 24 in the Cognitive Drug Research computerized assessment system (CDR-S) episodic memory;
# scopolamine treated mice = assay: object recognition task in scopolamine-treated mice; assay type: in vivo
# From the text: FIG. 2 illustrates the results of the effect of a co-treatment with 2-(cyclohexylmethyl)-N-{2-[(2S)-1-methylpyrrolidin-2-yl]ethyl}-1,2,3,4-tetrahydroisoquinoline-7-sulfonamide and donepezil on recognition memory deficit in scopolamine-treated mice using the object recognition task.
# The results of this study are depicted in FIG. 2.
smiles,measurement,setting,value
"CN1CCC[C@H]1CCNS(=O)(=O)c1ccc2c(c1)CN(CC1CCCCC1)CC2 [API, 2-(cyclohexylmethyl)-N-{2-[(2S)-1-methylpyrrolidin-2-yl]ethyl}-1,2,3,4-tetrahydroisoquinoline-7-sulfonamide difumarate monohydrate]",Patients with an TEAE,[1]; 0.5 mg (N = 72),53 (73.6%)
same,Patients with any treatment emergent serious adverse event,[1]; 0.5 mg (N = 72),10 (13.9%)
same,TEAE: Anxiety,[1]; 0.5 mg (N = 72),3 (4.2%)
same,TEAE: Cardiac disorders,[1]; 0.5 mg (N = 72),5 (6.9%)
same,TEAE: Depressive disorders,[1]; 0.5 mg (N = 72),1 (1.4%)
same,TEAE: Dermatitis,[1]; 0.5 mg (N = 72),1 (1.4%)
same,TEAE: Diarrhea,[1]; 0.5 mg (N = 72),7 (9.7%)
same,TEAE: Dyspepsia,[1]; 0.5 mg (N = 72),1 (1.4%)
same,TEAE: Gastrointestinal disorders,[1]; 0.5 mg (N = 72),11 (15.3%)
same,TEAE: Hiatus hernia,[1]; 0.5 mg (N = 72),0%
same,TEAE: Infections and infestations,[1]; 0.5 mg (N = 72),20 (27.8%)
same,TEAE: Muscle spasm,[1]; 0.5 mg (N = 72),1 (1.4%)
same,TEAE: Musculoskeletal and connective tissue disorders,[1]; 0.5 mg (N = 72),5 (6.9%)
same,TEAE: Other (Falls),[1]; 0.5 mg (N = 72),9 (12.5%)
same,TEAE: Psychiatric disorders,[1]; 0.5 mg (N = 72),21 (29.2%)
same,TEAE: Rashes,[1]; 0.5 mg (N = 72),1 (1.4%)
same,TEAE: Skin and subcutaneous tissue disorders,[1]; 0.5 mg (N = 72),7 (9.7%)
same,TEAE: Sleep disorders and Disturbance,[1]; 0.5 mg (N = 72),12 (16.7%)
same,TEAE: Vascular disorders,[1]; 0.5 mg (N = 72),2 (2.8%)
same,Patients with an TEAE,[1]; 2 mg (N = 72),54 (76.1%)
same,Patients with any treatment emergent serious adverse event,[1]; 2 mg (N = 72),10 (14.1%)
same,TEAE: Anxiety,[1]; 2 mg (N = 72),4 (5.6%)
same,TEAE: Cardiac disorders,[1]; 2 mg (N = 72),3 (4.2%)
same,TEAE: Depressive disorders,[1]; 2 mg (N = 72),2 (2.8%)
same,TEAE: Dermatitis,[1]; 2 mg (N = 72),3 (4.2%)
same,TEAE: Diarrhea,[1]; 2 mg (N = 72),7 (9.9%)
same,TEAE: Dyspepsia,[1]; 2 mg (N = 72),1 (1.4%)
same,TEAE: Gastrointestinal disorders,[1]; 2 mg (N = 72),18 (25.4%)
same,TEAE: Hiatus hernia,[1]; 2 mg (N = 72),0%
same,TEAE: Infections and infestations,[1]; 2 mg (N = 72),11 (15.5%)
same,TEAE: Muscle spasm,[1]; 2 mg (N = 72),2 (2.8%)
same,TEAE: Musculoskeletal and connective tissue disorders,[1]; 2 mg (N = 72),12 (16.9%)
same,TEAE: Other (Falls),[1]; 2 mg (N = 72),7 (9.9%)
same,TEAE: Psychiatric disorders,[1]; 2 mg (N = 72),18 (25.4%)
same,TEAE: Rashes,[1]; 2 mg (N = 72),4 (5.6%)
same,TEAE: Skin and subcutaneous tissue disorders,[1]; 2 mg (N = 72),15 (21.1%)
same,TEAE: Sleep disorders and Disturbance,[1]; 2 mg (N = 72),11 (15.5%)
same,TEAE: Vascular disorders,[1]; 2 mg (N = 72),3 (4.3%)
same,Patients with an TEAE,[1]; 5 mg (N = 69),59 (85.5%)
same,Patients with any treatment emergent serious adverse event,[1]; 5 mg (N = 69),8 (11.6%)
same,TEAE: Anxiety,[1]; 5 mg (N = 69),4 (5.8%)
same,TEAE: Cardiac disorders,[1]; 5 mg (N = 69),5 (7.2%)
same,TEAE: Depressive disorders,[1]; 5 mg (N = 69),5 (7.2%)
same,TEAE: Dermatitis,[1]; 5 mg (N = 69),3 (4.3%)
same,TEAE: Diarrhea,[1]; 5 mg (N = 69),4 (5.8%)
same,TEAE: Dyspepsia,[1]; 5 mg (N = 69),3 (4.3%)
same,TEAE: Gastrointestinal disorders,[1]; 5 mg (N = 69),17 (24.6%)
same,TEAE: Hiatus hernia,[1]; 5 mg (N = 69),3 (4.3%)
same,TEAE: Infections and infestations,[1]; 5 mg (N = 69),16 (23.2%)
same,TEAE: Muscle spasm,[1]; 5 mg (N = 69),7 (10.6%)
same,TEAE: Musculoskeletal and connective tissue disorders,[1]; 5 mg (N = 69),16 (23.2%)
same,TEAE: Other (Falls),[1]; 5 mg (N = 69),7 (10.1%)
same,TEAE: Psychiatric disorders,[1]; 5 mg (N = 69),27 (39.1%)
same,TEAE: Rashes,[1]; 5 mg (N = 69),1 (1.4%)
same,TEAE: Skin and subcutaneous tissue disorders,[1]; 5 mg (N = 69),5 (7.2%)
same,TEAE: Sleep disorders and Disturbance,[1]; 5 mg (N = 69),21 (30.4%)
same,TEAE: Vascular disorders,[1]; 5 mg (N = 69),3 (4.3%)
same,"sleep disorders and disturbances, incidence among groups",[1]; 5 mg group,highest incidence
same,safety and tolerability,"[1]; 0.5, 2, 5 mg/day with donepezil, 24 weeks",safe and well tolerated
same,"vascular disorders, incidence over placebo",[1]; all treated groups,low incidence
same,"rate of responder on a combined criterion (ADAS-Cog, ADCS-ADL, CGIC)",[2]; 5 mg group with donepezil,16.7%
same,rate of responders over placebo,[2]; 5 mg/day with donepezil,higher rate
same,episodic memory difference vs placebo,"[3]; 5 mg/day with donepezil, at 24 weeks",no longer significant
same,"power of attention vs placebo, tendency",[3]; 0.5 and 5 mg group at week 24,Tendencies for improvement versus placebo
same,power of attention change from baseline vs placebo,"[3]; all dose groups, week 8 or week 24, mITT",no significant difference
same,CDR-S measure of working memory,"[3]; week 24, with donepezil",not significantly modified
same,CDR-S other measures of attention/speed of response,"[3]; week 24, with donepezil",not significantly modified
same,"activity of the amount given alone, episodic memory deficits",scopolamine treated mice; 0.3 mg/kg alone,inactive
same,"episodic memory deficits, co-treatment",scopolamine treated mice; 0.3 mg/kg with donepezil hydrochloride 1 mg/kg,reversed episodic memory deficits
